# Legend:
# Assay in all cases: Antibacterial spectra, MIC by standard method of Japan Society of Chemotherapy
# Format in all cases: cell-based
# [1] = tested on: Bacillus subtilis PCI 219; details: 10^6 cells/ml
# [2] = tested on: Staphylococcus aureus 209 P; details: Gram +, 10^6 cells/ml
# [3] = tested on: S. aureus IID 670 (Terajima); details: 10^6 cells/ml
# S. epidermidis IID 866 = details: 10^6 cells/ml
# [4] = tested on: Streptococcus pyogenes IID 692; details: 10^6 cells/ml
# [5] = tested on: S. pyogenes IID 689 (S-8); details: 10^6 cells/ml
# S. faecalis IID 682 = details: 10^6 cells/ml
# S. pneumoniae 2054 = details: Gram +, 10^6 cells/ml
# E. coli NIHJ JC-2 = tested on: E. coli NIHJ JC-2
# E. coli ATCC 10536 = details: 10^6 cells/ml
# [6] = tested on: Proteus vulgaris IFO 3167; details: Proteus vulgaris IFO 3167, Gram −, 10^6 cells/ml
# P. mirabilis IID 994 = details: 10^6 cells/ml
# P. morganii IID 602 = details: 10^6 cells/ml
# [7] = tested on: Klebsiella pneumoniae KY 6445; details: 10^6 cells/ml
# [8] = tested on: Enterobacter cloacae IID 977; details: 10^6 cells/ml
# [9] = tested on: Citrobacter freundii IID 976; details: 10^6 cells/ml
# [10] = tested on: Serratia marcescens IID 618; details: 10^6 cells/ml
# Shigella sonnei IID 969 = details: 10^6 cells/ml
# Method: Experiment 1. Antibacterial spectra
# Antibacterial activity was determined with the standard method recommended by Japan Society of Chemotherapy.
# [11] = tested on: Salmonella enteritidis IID 604; details: Gram −, 10^6 cells/ml
# [12] = tested on: Pseudomonas aeruginosa V-1; details: 10^6 cells/ml
# [13] = tested on: Pseudomonas aeruginosa IFO 12689; details: 10^6 cells/ml
# [14] = tested on: Yersinia enterocolitica IID 981; details: 10^6 cells/ml
# [15] = tested on: Acinetobacter anitratus IID 876; details: 10^6 cells/ml
# [16] = tested on: Alcaligenes faecalis 0104002; details: Gram −, 10^6 cells/ml, read-out: Minimum Inhibitory Concentration
# [17] = tested on: Bacteroides fragilis GM 7000; details: 10^6 cells/ml
# [18] = tested on: Bacteroides fragilis 0558; details: Gram −, 10^6 cells/ml, read-out: Minimum Inhibitory Concentration
# [19] = tested on: Bacteroides fragilis 25285; details: Gram −, 10^6 cells/ml
# [20] = read-out: Minimum Inhibitory Concentration
smiles,measurement,setting,value
"CN1CCN(c2c(F)cc3c(=O)c(C(=O)O)cn(C4CC4)c3c2F)CC1 [Reference- 2, 1-Cyclopropyl-6,8-difluoro-1,4-dihydro-7-(4-methyl-1-piperazinyl)-4-oxoquinoline-3-carboxylic acid, reference compound]",ratio of activity per that of Ciprofloxacin (bracketed number),[1]; Gram +,1
same,MIC,"[1]; PCI219, Gram +, read-out: Minimum Inhibitory Concentration",0.05 µg/mL
same,ratio of activity per that of Ciprofloxacin (bracketed number),[2],4
same,MIC,[2]; [20],0.1 µg/mL
same,ratio of activity per that of Ciprofloxacin (bracketed number),[3]; Gram +,2
same,MIC,"[3]; Staphylococcus aureus, IID670, Gram +, read-out: Minimum Inhibitory Concentration",0.2 µg/mL
same,ratio of activity per that of Ciprofloxacin (bracketed number),S. epidermidis IID 866; Gram +,2
same,MIC,"S. epidermidis IID 866; Staphylococcus epidermidis, IID866, Gram +, read-out: Minimum Inhibitory Concentration",0.2 µg/mL
same,ratio of activity per that of Ciprofloxacin (bracketed number),[4]; Gram +,1
same,MIC,"[4]; IID692, Gram +, read-out: Minimum Inhibitory Concentration",0.78 µg/mL
same,ratio of activity per that of Ciprofloxacin (bracketed number),[5]; Gram +,0.5
same,MIC,"[5]; Streptococcus pyogenes, IID689, Gram +, read-out: Minimum Inhibitory Concentration",0.78 µg/mL
same,MIC,"S. faecalis IID 682; Enterococcus faecalis, IID682, Gram +, read-out: Minimum Inhibitory Concentration",0.78 µg/mL
same,ratio of activity per that of Ciprofloxacin (bracketed number),S. faecalis IID 682; Gram +,1
same,ratio of activity per that of Ciprofloxacin (bracketed number),S. pneumoniae 2054,2
same,MIC,"S. pneumoniae 2054; Streptococcus pneumoniae, read-out: Minimum Inhibitory Concentration",0.78 µg/mL
same,ratio of activity per that of Ciprofloxacin (bracketed number),"E. coli NIHJ JC-2; E. coli NIHJ JC-2, Gram −, 10^6 cells/ml",0.5
same,MIC,"E. coli NIHJ JC-2; Escherichia coli, NIHJJC2, read-out: Minimum Inhibitory Concentration",0.0125 µg/mL
same,MIC,"E. coli ATCC 10536; Escherichia coli, ATCC10536, Gram −, read-out: Minimum Inhibitory Concentration",0.0125 µg/mL
same,ratio of activity per that of Ciprofloxacin (bracketed number),E. coli ATCC 10536; Gram −,1
same,MIC,"[6]; IFO3167, read-out: Minimum Inhibitory Concentration",0.025 µg/mL
same,ratio of activity per that of Ciprofloxacin (bracketed number),[6],0.25
same,ratio of activity per that of Ciprofloxacin (bracketed number),P. mirabilis IID 994; Gram −,0.5
same,MIC,"P. mirabilis IID 994; Proteus mirabilis, IID994, Gram −, read-out: Minimum Inhibitory Concentration",0.025 µg/mL
same,ratio of activity per that of Ciprofloxacin (bracketed number),P. morganii IID 602; Gram −,1
same,MIC,"P. morganii IID 602; Morganella morganii, IID602, Gram −, read-out: Minimum Inhibitory Concentration",0.05 µg/mL
same,ratio of activity per that of Ciprofloxacin (bracketed number),[7]; Gram −,1
same,MIC,"[7]; KY6445, Gram −, read-out: Minimum Inhibitory Concentration",0.0125 µg/mL
same,ratio of activity per that of Ciprofloxacin (bracketed number),[8]; Gram −,1
same,MIC,"[8]; IID977, Gram −, read-out: Minimum Inhibitory Concentration",0.05 µg/mL
same,ratio of activity per that of Ciprofloxacin (bracketed number),[9]; Gram −,0.25
same,MIC,"[9]; IID976, Gram −, read-out: Minimum Inhibitory Concentration",0.025 µg/mL
same,ratio of activity per that of Ciprofloxacin (bracketed number),[10]; Gram −,1
same,MIC,"[10]; IID618, Gram −, read-out: Minimum Inhibitory Concentration",0.39 µg/mL
same,ratio of activity per that of Ciprofloxacin (bracketed number),Shigella sonnei IID 969; Gram −,0.5
same,MIC,"Shigella sonnei IID 969; IID969, Gram −, read-out: Minimum Inhibitory Concentration",0.0125 µg/mL
same,ratio of activity per that of Ciprofloxacin (bracketed number),[11],0.5
same,MIC,"[11]; Salmonella enterica, read-out: Minimum Inhibitory Concentration",0.05 µg/mL
same,ratio of activity per that of Ciprofloxacin (bracketed number),[12]; Gram −,0.5
same,MIC,"[12]; V1, Gram −, read-out: Minimum Inhibitory Concentration",0.39 µg/mL
same,ratio of activity per that of Ciprofloxacin (bracketed number),[13]; Gram −,1
same,MIC,"[13]; IFO12689, Gram −, read-out: Minimum Inhibitory Concentration",0.39 µg/mL
same,ratio of activity per that of Ciprofloxacin (bracketed number),[14]; Gram −,1
same,MIC,"[14]; IID981, Gram −, read-out: Minimum Inhibitory Concentration",0.05 µg/mL
same,MIC,"[15]; Acinetobacter calcoaceticus, IID876, Gram −, read-out: Minimum Inhibitory Concentration",0.0125 µg/mL
same,ratio of activity per that of Ciprofloxacin (bracketed number),[15]; Gram −,2
same,MIC,[16],0.02 µg/mL
same,MIC,"[17]; GM7000, Gram −, read-out: Minimum Inhibitory Concentration",0.78 µg/mL
same,ratio of activity per that of Ciprofloxacin (bracketed number),[17]; Gram −,4
same,MIC,[18],0.39 µg/mL
same,ratio of activity per that of Ciprofloxacin (bracketed number),[19],8
same,MIC,[19]; [20],0.39 µg/mL
